Measured values as given in the NIST ThermoML archive (doi:10.1016/j.fluid.2007.11.005).

Settings: Liquid, Bellows volumetry

CCCCn1cc[n+](C)c1.F[P-](F)(F)(F)(F)F [1-butyl-3-methylimidazolium hexafluorophosphate]
mass density [kg/m3]
Settings	312.8 K	332.6 K	353.2 K	372.7 K	392.8 K	412.8 K	432.6 K	452.5 K	472.3 K
100 kPa	1352	–	–	–	–	–	–	–	–
10000 kPa	1358	1342	1325	1310	1299	1284	1269	1254	1240
20000 kPa	1363	1347	1332	1317	1305	1290	1276	1262	1248
30000 kPa	1368	1353	1338	1323	1311	1297	1283	1269	1256
40000 kPa	1373	1358	1343	1329	1317	1303	1290	1276	1263
50000 kPa	1378	1363	1349	1334	1323	1309	1296	1283	1270
60000 kPa	1383	1368	1354	1339	1329	1315	1302	1289	1276
70000 kPa	1388	1373	1359	1345	1334	1321	1308	1295	1282
80000 kPa	1392	1378	1364	1350	1339	1326	1313	1301	1289
90000 kPa	1396	1382	1368	1355	1344	1331	1319	1306	1294
100000 kPa	1400	1387	1373	1360	1349	1336	1324	1312	1300
110000 kPa	1405	1391	1377	1364	1354	1341	1329	1317	1305
120000 kPa	1409	1395	1382	1369	1359	1346	1334	1322	1311
130000 kPa	1412	1399	1386	1373	1363	1351	1339	1327	1316
140000 kPa	1416	1403	1390	1377	1367	1355	1343	1332	1320
150000 kPa	1420	1407	1394	1381	1372	1360	1348	1336	1325
160000 kPa	1424	1411	1398	1385	1376	1364	1352	1341	1330
170000 kPa	1427	1415	1402	1389	1380	1368	1357	1345	1334
180000 kPa	1431	1418	1405	1393	1384	1372	1361	1350	1339
190000 kPa	1435	1422	1409	1397	1388	1376	1365	1354	1343
200000 kPa	1438	1425	1413	1401	1392	1380	1369	1358	1347

CCCCn1cc[n+](C)c1.F[B-](F)(F)F [1-butyl-3-methylimidazolium tetrafluoroborate]
mass density [kg/m3]
Settings	313.1 K	332.6 K	352.6 K	372.7 K	392.8 K	412.9 K	432.6 K	452.3 K	472.2 K
100 kPa	1191	–	–	–	–	–	–	–	–
10000 kPa	1195	1182	1168	1155	1142	1129	1116	1102	1090
20000 kPa	1200	1186	1173	1160	1148	1135	1122	1108	1096
30000 kPa	1204	1191	1178	1165	1153	1140	1127	1115	1102
40000 kPa	1208	1195	1182	1170	1158	1145	1133	1120	1108
50000 kPa	1212	1200	1187	1174	1163	1150	1138	1126	1114
60000 kPa	1216	1204	1191	1179	1167	1155	1143	1131	1119
70000 kPa	1220	1208	1195	1183	1172	1160	1148	1136	1124
80000 kPa	1224	1212	1199	1187	1176	1164	1152	1140	1129
90000 kPa	1227	1215	1203	1191	1180	1169	1157	1145	1134
100000 kPa	1231	1219	1207	1195	1184	1173	1161	1150	1139
110000 kPa	1234	1223	1211	1199	1188	1177	1165	1154	1143
120000 kPa	1238	1226	1214	1203	1192	1181	1170	1158	1147
130000 kPa	1241	1229	1218	1206	1195	1185	1173	1162	1152
140000 kPa	1244	1233	1221	1210	1199	1189	1177	1166	1156
150000 kPa	1248	1236	1225	1213	1203	1192	1181	1170	1160
160000 kPa	1251	1239	1228	1217	1206	1196	1185	1174	1164
170000 kPa	1254	1243	1231	1220	1210	1199	1188	1177	1167
180000 kPa	1257	1246	1234	1223	1213	1203	1192	1181	1171
190000 kPa	1260	1249	1237	1227	1216	1206	1195	1185	1175
200000 kPa	1263	1252	1241	1230	1220	1210	1199	1188	1178
